Data on one compound can be found in PMC8426359, “Use of a small molecule integrin activator as a systemically administered vaccine adjuvant in controlling Chagas disease” (NPJ Vaccines, 2021).

pEC50: −log10 of the molar value.

For this assay, the target named is T1, integrin α4β1 (very late activation antigen-4, VLA-4) (Homo sapiens, UniProt P05556+P13612).
T1 construct: gene ITGA4; endogenous integrin on Jurkat cells; with integrin β1 (ITGB1)
Nature of the assay: static adhesion of Jurkat cells to VCAM-1; blocked by anti-α[…] or anti-β[…] mAb. It is filed as cell-based.

T1 sequence (P13612 34-1032): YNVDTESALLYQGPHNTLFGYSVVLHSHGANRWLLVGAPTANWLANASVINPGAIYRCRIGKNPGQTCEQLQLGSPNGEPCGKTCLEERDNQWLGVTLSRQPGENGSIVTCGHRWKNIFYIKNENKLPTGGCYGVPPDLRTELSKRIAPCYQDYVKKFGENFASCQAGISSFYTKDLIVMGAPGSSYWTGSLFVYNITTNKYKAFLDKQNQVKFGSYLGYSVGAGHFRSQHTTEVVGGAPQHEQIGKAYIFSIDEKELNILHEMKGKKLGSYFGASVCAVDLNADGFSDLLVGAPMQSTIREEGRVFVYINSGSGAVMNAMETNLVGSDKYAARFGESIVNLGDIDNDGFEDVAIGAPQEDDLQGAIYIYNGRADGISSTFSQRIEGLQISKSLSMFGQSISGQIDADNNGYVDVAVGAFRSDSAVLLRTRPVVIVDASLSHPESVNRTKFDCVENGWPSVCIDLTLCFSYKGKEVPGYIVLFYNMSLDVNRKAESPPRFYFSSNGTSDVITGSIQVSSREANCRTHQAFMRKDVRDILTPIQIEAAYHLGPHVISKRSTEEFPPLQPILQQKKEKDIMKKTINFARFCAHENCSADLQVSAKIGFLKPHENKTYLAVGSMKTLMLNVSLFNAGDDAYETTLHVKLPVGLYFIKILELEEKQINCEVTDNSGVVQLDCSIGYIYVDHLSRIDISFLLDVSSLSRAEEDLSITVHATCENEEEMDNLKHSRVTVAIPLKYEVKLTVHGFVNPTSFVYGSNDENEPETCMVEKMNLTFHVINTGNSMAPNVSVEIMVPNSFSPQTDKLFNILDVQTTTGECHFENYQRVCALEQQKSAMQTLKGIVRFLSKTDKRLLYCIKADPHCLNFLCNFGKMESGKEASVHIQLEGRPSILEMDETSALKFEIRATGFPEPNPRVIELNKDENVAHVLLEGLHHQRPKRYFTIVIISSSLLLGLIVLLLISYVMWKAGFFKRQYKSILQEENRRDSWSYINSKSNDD
T1 sequence (P05556 21-798): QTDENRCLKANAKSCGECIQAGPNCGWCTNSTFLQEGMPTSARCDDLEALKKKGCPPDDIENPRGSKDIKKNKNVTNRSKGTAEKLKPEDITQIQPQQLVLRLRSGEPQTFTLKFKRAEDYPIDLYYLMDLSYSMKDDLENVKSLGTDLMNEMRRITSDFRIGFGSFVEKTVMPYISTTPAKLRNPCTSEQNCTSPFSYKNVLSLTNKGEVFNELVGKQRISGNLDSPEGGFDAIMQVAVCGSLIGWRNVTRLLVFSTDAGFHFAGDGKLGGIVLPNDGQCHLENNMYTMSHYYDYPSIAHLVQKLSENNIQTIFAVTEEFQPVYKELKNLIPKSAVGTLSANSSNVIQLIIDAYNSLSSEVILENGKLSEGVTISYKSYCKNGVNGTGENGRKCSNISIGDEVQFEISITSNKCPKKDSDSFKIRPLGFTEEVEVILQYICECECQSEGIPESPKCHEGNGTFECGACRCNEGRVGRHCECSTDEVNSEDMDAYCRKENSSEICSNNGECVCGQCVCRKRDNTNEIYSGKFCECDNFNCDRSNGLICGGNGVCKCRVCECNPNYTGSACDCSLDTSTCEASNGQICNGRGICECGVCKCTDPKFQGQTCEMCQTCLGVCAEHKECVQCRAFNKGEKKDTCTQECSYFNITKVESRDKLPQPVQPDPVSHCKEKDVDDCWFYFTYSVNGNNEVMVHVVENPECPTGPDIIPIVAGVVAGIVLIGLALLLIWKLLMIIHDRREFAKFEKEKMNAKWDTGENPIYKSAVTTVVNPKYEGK

For `O=C(OCCOCCOCCOC(=O)N(Cc1cccs1)Cc1cccs1)N(Cc1cccs1)Cc1cccs1` [7HP349], the pEC50 (commonly the negative decadic logarithm of the EC50, by convention in mol/L) is 5.70.
